# Test results: ChEMBL document CHEMBL1132392, “Novel derivatives of 3-(dipropylamino)chroman. Interactions with 5-HT1A and D2A receptors” (Bioorg Med Chem Lett, 1999)
# Active and inactive are the calls of the source. The rule behind the calls is not given here.
# Tests used:
# [1] = molecular target: T1, 5-hydroxytryptamine receptor 1A (Rattus norvegicus, UniProt P19327); assay: In vitro ability to inhibit [3H]-8-OH-DPAT binding to 5-hydroxytryptamine 1A receptor in rat cortical membranes; type: cell membranes
# T1 sequence (P19327 whole entry): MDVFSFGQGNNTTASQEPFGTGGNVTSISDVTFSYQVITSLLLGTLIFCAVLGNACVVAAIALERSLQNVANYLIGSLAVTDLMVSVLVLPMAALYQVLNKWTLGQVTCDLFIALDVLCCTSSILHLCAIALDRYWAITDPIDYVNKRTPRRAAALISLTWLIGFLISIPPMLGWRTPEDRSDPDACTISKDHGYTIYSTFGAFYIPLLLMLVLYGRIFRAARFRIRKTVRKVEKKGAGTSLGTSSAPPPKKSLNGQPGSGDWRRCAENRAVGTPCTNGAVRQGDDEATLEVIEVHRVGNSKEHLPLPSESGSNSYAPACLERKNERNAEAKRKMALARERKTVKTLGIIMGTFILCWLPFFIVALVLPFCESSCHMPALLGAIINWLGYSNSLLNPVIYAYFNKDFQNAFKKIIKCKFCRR
# [2] = molecular target: T2, D(2) dopamine receptor (Homo sapiens, UniProt P14416); assay: In vitro ability to inhibit [3H]raclopride binding to cloned human D2A receptors expressed in mouse fibroblast (LtK-) cells; type: cell-based
# [3] = molecular target: T2, D(2) dopamine receptor; assay: Agonist activity against human D2A receptor; Active; type: functional
# T2 sequence (P14416 whole entry): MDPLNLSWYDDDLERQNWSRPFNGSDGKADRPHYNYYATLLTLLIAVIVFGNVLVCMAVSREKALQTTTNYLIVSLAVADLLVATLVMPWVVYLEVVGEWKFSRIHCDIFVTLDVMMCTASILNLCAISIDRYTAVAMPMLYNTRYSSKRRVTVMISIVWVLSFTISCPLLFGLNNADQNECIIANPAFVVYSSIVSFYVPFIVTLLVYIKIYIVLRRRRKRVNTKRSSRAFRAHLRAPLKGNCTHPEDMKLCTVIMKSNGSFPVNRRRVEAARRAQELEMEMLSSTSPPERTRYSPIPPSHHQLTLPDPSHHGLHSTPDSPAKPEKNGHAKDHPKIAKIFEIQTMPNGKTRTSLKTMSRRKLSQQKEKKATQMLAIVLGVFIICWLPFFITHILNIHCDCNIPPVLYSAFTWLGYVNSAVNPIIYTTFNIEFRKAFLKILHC
SMILES,Ki [1] [nM],Ki [2] [nM],Activity [3]
CCCN(CCC)C1COc2c(cccc2C(=O)c2ccsc2)C1 (stereo not given),7.3,> 1000,–
CCCN(CCC)C1COc2c(Br)ccc(OC)c2C1 (stereo not given),–,–,Active
CCCN(CCC)C1COc2c(cccc2-c2ccccc2)C1 (stereo not given),1.1,–,–
CCCN(CCC)C1COc2c(cccc2-c2ccoc2)C1 (stereo not given),5.7,47.5,–
CCCN(CCC)C1COc2c(cccc2-c2ccsc2)C1 (stereo not given),1.1,398,–
CCCN(CCC)C1COc2c(cccc2C(=O)c2ccc(C(C)=O)cc2)C1 (stereo not given),11,> 1000,–
CCCN(CCC)C1COc2c(cccc2C(=O)c2ccoc2)C1 (stereo not given),16.4,1360,–
CCCN(CCC)C1COc2c(cccc2C(=O)c2ccc(C(F)(F)F)cc2)C1 (stereo not given),47.2,> 1000,–
CCCN(CCC)C1COc2c(cccc2-c2ccccc2OC)C1 (stereo not given),1.1,> 1000,–
CCCN(CCC)C1COc2c(cccc2-c2ccc(OC)cc2)C1 (stereo not given),1.3,–,–
CCCN(CCC)C1COc2c(cccc2-c2ccc(C(F)(F)F)cc2)C1 (stereo not given),63.8,763,–
CCCN(CCC)C1COc2c(O)cccc2C1 (stereo not given),> 3000,128,–
CCCN(CCC)C1COc2c(cccc2C(=O)c2ccccc2)C1 (stereo not given),4,> 1000,–
CCCN(CCC)C1COc2c(cccc2C(=O)c2ccc(OC)cc2)C1 (stereo not given),10.5,> 1000,–
CCCN(CCC)C1COc2c(SC)ccc(OC)c2C1 (stereo not given),–,–,Active
CCCN(CCC)C1COc2cccc(O)c2C1 (stereo not given),83,> 3000,–
CCCN(CCC)C1COc2c(cccc2C(=O)c2ccccc2OC)C1 (stereo not given),60.8,> 1000,–
